Measured values reported in article PMC4422656, “Structural Basis Underlying the Binding Preference of Human Galectins-1, -3 and -7 for Galβ1-3/4GlcNAc” (PLoS ONE, 2015).
Where “and” joins values, the source holds several entries; their conditions need not be identical. Identical values can stand only once.

Tests used:
[1] = tested on: hGal1; parameters: method as in PMID 23124203; settings: in the presence of λ5-UR peptide of pre-BCR; cited from earlier work
[2] = tested on: CRD domain of hGal3; parameters: method as in PMID 12223272; settings: CRD domain used instead of full-length hGal3; LN1 versus LN2; cited from earlier work
[3] = tested on: hGal1; parameters: method as in PMID 12223272; settings: LN1 versus LN2; cited from earlier work
[4] = tested on: rat galectin-2; parameters: method as in PMID 12223272; settings: cited from earlier work
[5] = molecular target: T1, human galectin-7 (hGal7) (Homo sapiens, UniProt P47929); assay: Biolayer interferometry, LN1/LN2 binding affinity; settings: for Kd: Biolayer Interferometry at 300 K, steady-state, read-out: Dissociation constant Kd (Kd BI)
T1 construct: 7 (residues 1–136); 6xHis (C); made in house; host or cells: Escherichia coli BL21 (DE3)
T1 sequence (P47929 whole entry, the tested form may be a part): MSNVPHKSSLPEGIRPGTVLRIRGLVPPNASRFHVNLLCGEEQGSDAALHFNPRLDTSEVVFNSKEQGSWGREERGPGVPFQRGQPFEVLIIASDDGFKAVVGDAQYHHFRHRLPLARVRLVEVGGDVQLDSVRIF
Text: (§1) Using a standard PCR-based cloning strategy, the coding region of the full-length hGal1 (residues 1–135), 3 (residues 1–250), 7 (residues 1–136) and CRD domain of hGal3 (residues 113–250) were generated and inserted into modified pET-15b (hGal1, hGal3 and hGal3-CRD) or pET-28a (hGal7) vector (Novagen) with in-frame N- and C-terminal 6xHis-tag, respectively. QuikChange mutagenesis method (Agilent Technologies) was applied to replace the corresponding codons of residues Glu165 and Arg186 in full-length hGal3 with Ala codon to allow the expression of mutant proteins hGal3-E165A and hGal3-R186A. All the wild type and mutated proteins were produced in Escherichia coli BL21 (DE3), with 0.5 mM IPTG induction for 16 h at 20 °C. Recombinant proteins were purified by Ni^2+-affinity and size-exclusion chromatography to homogeneity. Purified proteins were then stored in gel-filtration buffer (25 mM Tris-HCl pH8.0, 300 mM NaCl and 5 mM β-mercaptoethanol) and concentrated to ~ 4, 20 and 9 mg/ml as determined by the method of Bradford for both Biolayer interferometry experiments and crystallization trials, respectively.
(§2) Specifically, biotinylated galectins were prepared according to the standard protocol (provided by FortéBio), and adjusted to final concentration of 1 μM in assay buffer condition (50 mM Tris-HCl pH 7.5, 300 mM NaCl and 5 mM β-mercaptoethanol). Biotinylated galectins were then immobilized on Super Streptavidin Biosensors (FortéBio, Inc.), while free streptavidin sites on biosensor were then blocked by incubation with biocytin (10 mg/ml) to avoid non-specific interactions. […] Measurements were followed by 120 sec baseline step, 60 sec association step and 200 sec dissociation step. Baseline and dissociation steps were carried out in assay buffer only. All the data were processed and calculated using Fortebio software and the steady-state K d values were derived from equilibrium responses (S1 Fig) and summarized in Table 1. Two additional parallel Super Streptavidin biosensors were coated with biotinylated galectin and biocytin, separately, and only incubated with assay buffer as double reference controls.

[6] = molecular target: T2, human galectin-3 (hGal3, full-length) (Homo sapiens, UniProt P17931); assay: Biolayer interferometry, LN1/LN2 binding affinity; settings: for Kd: Biolayer Interferometry at 300 K, steady-state, read-out: Dissociation constant Kd (Kd BI)
T2 construct: the full-length hGal1 (residues 1–135), 3 (residues 1–250); 6xHis (N); made in house; host or cells: Escherichia coli BL21 (DE3)
T2 sequence (P17931 whole entry, the tested form may be a part): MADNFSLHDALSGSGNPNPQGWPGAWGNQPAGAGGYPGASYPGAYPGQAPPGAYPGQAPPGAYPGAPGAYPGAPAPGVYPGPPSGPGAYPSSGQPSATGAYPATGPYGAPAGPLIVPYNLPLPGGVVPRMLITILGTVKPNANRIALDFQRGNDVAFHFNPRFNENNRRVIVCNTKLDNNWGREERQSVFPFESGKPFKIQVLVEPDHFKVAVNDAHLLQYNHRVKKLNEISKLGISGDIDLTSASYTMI
Text: as §1, §2

[7] = molecular target: T3, human galectin-1 (hGal1) (Homo sapiens, UniProt P09382); assay: Biolayer interferometry, LN1/LN2 binding affinity; settings: for Kd: Biolayer Interferometry at 300 K, steady-state, read-out: Dissociation constant Kd (Kd BI)
T3 construct: the full-length hGal1 (residues 1–135); 6xHis (N); made in house; host or cells: Escherichia coli BL21 (DE3)
T3 sequence (P09382 whole entry, the tested form may be a part): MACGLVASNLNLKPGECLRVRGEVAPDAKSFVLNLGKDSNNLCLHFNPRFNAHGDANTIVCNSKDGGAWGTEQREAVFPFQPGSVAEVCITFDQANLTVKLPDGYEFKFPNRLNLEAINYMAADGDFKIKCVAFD
Text: as §1, §2

[8] = molecular target: T4, hGal3-R186A (Homo sapiens, UniProt P17931, R186A); assay: Biolayer interferometry, LN1/LN2 binding affinity; settings: hGal3-R186A mutant
T4 construct: the full-length hGal1 (residues 1–135), 3 (residues 1–250); 6xHis (N); made in house; host or cells: Escherichia coli BL21 (DE3)
T4 sequence (P17931 whole entry R186A, the tested form may be a part): as the sequence (P17931 whole entry, the tested form may be a part) above, with R186A counted along it
Text: as §1, §2

[9] = molecular target: T5, hGal3-E165A (Homo sapiens, UniProt P17931, E165A); assay: Biolayer interferometry, LN1/LN2 binding affinity; settings: for Reduction of binding affinity of hGal3-E165A: hGal3-E165A versus wild-type hGal3, from Table 1 Kd BI; for Kd: Biolayer Interferometry at 300 K, steady-state, read-out: Dissociation constant Kd (Kd BI)
T5 construct: the full-length hGal1 (residues 1–135), 3 (residues 1–250); 6xHis (N); made in house; host or cells: Escherichia coli BL21 (DE3)
T5 sequence (P17931 whole entry E165A, the tested form may be a part): as the sequence (P17931 whole entry, the tested form may be a part) above, with E165A counted along it
Text: as §1, §2

[10] = molecular target: T1, human galectin-7 (hGal7); assay: Fluorescence polarization (FP)-based competition binding assay; settings: for Kd: fluorescence anisotropy at 277 K, competition with LN2-FITC probe, read-out: Dissociation constant Kd (Kd FP)
Protocol: (§3) The measurement of FP-based assay is based on the rotation speed of a fluorophore-containing compound bound to the protein counterpart (e.g. galectins in this study). The fluorophore rotates at a slower rate than when it is unbound, and the resulting fluorescence polarization is higher. In this study we carried out all measurements according to reported procedures. […] All the measurements were conducted in Tris buffer (12.5 mM, pH 7.4) with 200 mM NaCl and 5 mM β-mercaptoethanol at 4 °C. Data plotting, nonlinear regression analysis, and curve construction was done by Prism 5.0 software (GraphPad, San Diego, CA).
(§4) The measured anisotropy value with competitor (Acompetitor) is used to calculate the amount of galectin-bound probe [PG] according to equation:
(§5) [PG]=[(Acompetitor−A0)∕(Amax−A0)]×[P]total.−

[11] = molecular target: T3, human galectin-1 (hGal1); assay: as above; settings: for Kd: fluorescence anisotropy at 277 K, competition with LN2-FITC probe, read-out: Dissociation constant Kd (Kd FP)
Protocol: as §3, §4, §5

[12] = molecular target: T6, human galectin-3 (hGal3) (Homo sapiens, UniProt P17931); assay: as above; settings: for Kd: fluorescence anisotropy at 277 K, competition with LN2-FITC probe, read-out: Dissociation constant Kd (Kd FP)
T6 construct: the full-length hGal1 (residues 1–135), 3 (residues 1–250); 6xHis (N); made in house; host or cells: Escherichia coli BL21 (DE3)
T6 sequence (P17931 whole entry, the tested form may be a part): as the sequence (P17931 whole entry, the tested form may be a part) above
Protocol: as §3, §4, §5

[13] = tested on: hGal7; parameters: method as in PMID 12223272; settings: cited from earlier work
[14] = tested on: hGal1; parameters: method as in PMID 21949831; settings: cited from earlier work
[15] = tested on: hGal3; parameters: method as in PMID 21949831; settings: cited from earlier work
[16] = based on Kd BI values, LN1 versus LN2
[17] = based on Kd FP values, LN1 versus LN2

Structure (SMILES) | Kd [5] | Kd [6] | Kd [7] | Binding ability [8] | Reduction of binding affinity of hGal3-E165A [9] | Kd ([9]; hGal3-E165A) | Kd [10] | Kd [11] | Kd [12] | also measured
CC(=O)N[C@H]1[C@H](O[C@H]2[C@@H](O)[C@@H](CO)O[C@@H](O[C@H]3[C@H](O)[C@@H](O)C(O)O[C@@H]3CO)[C@@H]2O)O[C@H](CO)[C@@H](O[C@@H]2O[C@H](CO)[C@H](O)[C@H](O)[C@H]2O)[C@@H]1O (mixture of isomers) [Lacto-N-neotetraose (LNnT), Lacto-N-neotetraose] |  |  |  |  |  |  |  |  |  | Decrease of hGal1 binding [1]: 3 fold
CC(=O)NC1C(O)OC(CO)C(O)C1OC1OC(CO)C(O)C(O)C1O (stereo not shown) [LN1, Galβ1-3GlcNAc] | ~270 µM and 270 µM | ~93 µM and 93 µM | ~340 µM and 340 µM | lose its binding ability | 2.5 fold | 230 µM | 6.6 µM and 6.63 µM | 6.74 µM | 1.44 µM | LN1/LN2 ratio, previous study [2]: 0.65 ^5; LN1/LN2 ratio, previous study [3]: 0.79; LN1/LN2 binding preference [4]: prominent LN1-preferred binding activity; LN1/LN2 ratio (Kd LN1/Kd LN2) [5, 16]: 1.52; LN1/LN2 ratio (Kd LN1/Kd LN2) [6, 16]: 0.35; LN1/LN2 ratio (Kd LN1/Kd LN2) [7, 16]: 0.44; LN1/LN2 ratio (Kd LN1/Kd LN2) ([9]; hGal3-E165A, based on Kd BI values, LN1 versus LN2): 1.22 and 1.22 ^2; LN1/LN2 ratio (Kd LN1/Kd LN2) [10, 17]: 2.97; LN1/LN2 ratio (Kd LN1/Kd LN2) [11, 17]: 0.53; LN1/LN2 ratio (Kd LN1/Kd LN2) [12, 17]: 0.23; LN1/LN2 ratio, previous study ([13]; LN1 versus LN2): 2.7; LN1/LN2 binding preference [13]: prominent LN1-preferred binding activity
CC(=O)N[C@@H]1[C@@H](O)[C@H](O[C@@H]2O[C@H](CO)[C@H](O)[C@H](O)[C@H]2O)[C@@H](CO)O[C@H]1O [LN2, Galβ1-4GlcNAc] | ~410 µM and 410 µM | ~33 µM and 33 µM | 150 µM | lose its binding ability | 8.5 fold | 280 µM | 19.7 µM | 3.59 µM | 0.33 µM | 
CC(=O)N[C@H]1C(O)O[C@H](CO)[C@H](O)[C@@H]1O[C@@H]1O[C@H](CO)[C@H](O)[C@H](O)[C@H]1O (stereo partly shown) [TF antigen, Galβ1-3GalNAc] |  |  |  |  |  |  |  |  |  | Binding with TF antigen [14]: not; Binding with TF antigen [15]: binds
CC(=O)N[C@H]1[C@H]([C@H](O)[C@H](O)CO)O[C@@](O[C@H]2[C@@H](O)[C@@H](CO)O[C@@H](O[C@H]3[C@H](O)[C@@H](NC(C)=O)C(O)O[C@@H]3CO)[C@@H]2O)(C(=O)O)C[C@@H]1O (stereo partly drawn) [α3-SiaLacNAc] |  |  |  |  |  |  |  |  |  | Increase of hGal1 binding [1]: 10 fold
